US20250145665A1, “MACROCYCLIC PEPTIDES USEFUL AS MODULATORS OF TNF ALPHA” (Bristol-Myers Squibb Company, priority 2023, published 2025)
Read-outs that look alike come from different tables or passages of the source. Starred links: 1 amine or outer side, 2 acyl side, 3 side chain; linkers in the order of their positions; H or OH if unused. Positions of bridges follow the written chain, without caps; N, C: chain ends. Non-standard residues stand in square brackets, D forms with d. Residues, ends and D or L forms follow the SMILES beside them. ξ: configuration not given here. *: point of attachment. Bip(4'-NHCO-C6H4-3-CH2COOH) = N[C@@H](Cc1ccc(-c2ccc(NC(=O)c3cccc(CC(=O)O)c3)cc2)cc1)C(=O)O; X56 = O=C(O)COc1cccc(NC(=O)c2ccc(-c3ccc(C[C@H](N[*:1])C(=O)[*:2])cc3)cc2)c1; Bip(4'-NH) = O=C([C@H](Cc1ccc(-c2ccc(N[*:3])cc2)cc1)N[*:1])[*:2]; Indazole3carbonyl(1-CH2COOH) = O=C(O)Cn1nc(C(=O)*)c2ccccc21; Bip(4'-COOH) = N[C@@H](Cc1ccc(-c2ccc(C(=O)O)cc2)cc1)C(=O)O; Bip(4'-NHAc) = CC(=O)Nc1ccc(-c2ccc(C[C@H](N)C(=O)O)cc2)cc1; X7 = N=C(NCCC[C@@H](N[*:1])C(=O)[*:2])NCc1ccc2occc2c1; X69 = N=C(NCCC[C@@H](N[*:1])C(=O)[*:2])NCc1cccc(N)c1; Ala(imidazol-2-yl) = N[C@@H](Cc1ncc[nH]1)C(=O)O; dArg(ω-Bn) = N=C(NCCC[C@@H](N)C(=O)O)NCc1ccccc1; Ala(morpholin-4-yl) = N[C@@H](CN1CCOCC1)C(=O)O; Benzoyl(3-OCH2COOH) = O=C(O)COc1cccc(C(=O)*)c1; Phe(3-CONH2) = NC(=O)c1cccc(C[C@H](N)C(=O)O)c1; Bip = N[C@@H](Cc1ccc(-c2ccccc2)cc1)C(=O)O; Ala(2-furyl) = N[C@@H](Cc1ccco1)C(=O)O; Hyp = O=C(O)[C@@H]1C[C@@H](O)CN1; 2Pal = N[C@@H](Cc1ccccn1)C(=O)O; 2Thi = N[C@@H](Cc1cccs1)C(=O)O; Cha = N[C@@H](CC1CCCCC1)C(=O)O; ξP = O=C(O)C1CCCN1; Sar = CNCC(=O)O

Target: TNFα (Homo sapiens, UniProt P01375)
Sequence (P01375 77-233 limits assumed): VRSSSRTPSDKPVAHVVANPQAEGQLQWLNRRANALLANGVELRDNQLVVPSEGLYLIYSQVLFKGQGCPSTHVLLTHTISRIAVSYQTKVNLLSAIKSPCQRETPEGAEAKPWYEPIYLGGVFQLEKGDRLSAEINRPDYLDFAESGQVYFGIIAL
Test: TNF-Induced HEK-Blue Assay
Type: cell-based
[1] = HEK-Blue-CD40L cells, NF-kB-driven secreted alkaline phosphatase reporter, TNFα 0.5 ng/ml, 18 h, read-out: TNF induced HEK-Blue assay IC50 value

Structure (SMILES) | IC50 [1] [nM] | IC50 [nM]
CC(C)C[C@@H]1NC(=O)[C@H](CCCNC(=N)N)NC(=O)[C@H](C(C)C)NC(=O)[C@@H]2CCCN2C(=O)[C@H](C(C)C)NC(=O)[C@H](CCCNC(=N)N)NC(=O)[C@H](CC(=O)O)NC(=O)[C@@H]2C[C@@H](O)CN2C(=O)CN(C)C(=O)[C@H](Cc2ccc(-c3ccccc3)cc2)NC(=O)[C@H](Cc2ccc(-c3ccccc3)cc2)NC(=O)[C@H](Cc2ccccc2)NC(=O)CSC[C@@H](C(=O)NCC(N)=O)NC1=O [Example 44] ({CH2CO}-F[Bip][Bip][Sar][Hyp]DRVPVRLCG-NH2; thioether N-13) | 200 to 2000 | –
CC(C)C[C@@H]1NC(=O)[C@H](Cc2cccs2)NC(=O)[C@H](C(C)C)NC(=O)[C@@H]2CCCN2C(=O)[C@H](C(C)C)NC(=O)[C@@H](CCCNC(=N)N)NC(=O)[C@H](CC(=O)O)NC(=O)[C@H](Cc2ccccn2)NC(=O)CN(C)C(=O)[C@H](Cc2ccc(-c3ccc(NC(=O)c4cccc(CC(=O)O)c4)cc3)cc2)NC(=O)[C@H](Cc2ccc(-c3ccccc3)cc2)NC(=O)[C@H](CC2CCCCC2)NC(=O)CSC[C@@H](C(=O)NCC(N)=O)NC1=O [Example 618] ({CH2CO}-[Cha][Bip][Bip(4'-NHCO-C6H4-3-CH2COOH)][Sar][2Pal]D[dR]VPV[2Thi]LCG-NH2; thioether N-13) | 50 to 200 | –
CC(C)C[C@@H]1NC(=O)[C@H](CCCNC(=N)N)NC(=O)[C@H](C(C)C)NC(=O)[C@@H]2CCCN2C(=O)[C@H](C(C)C)NC(=O)[C@@H](CCCNC(=N)NCc2cccc(N)c2)NC(=O)[C@H](CC(=O)O)NC(=O)[C@@H]2CCCN2C(=O)CN(C)C(=O)[C@H](Cc2ccc(-c3ccc(NC(=O)c4nn(CC(=O)O)c5ccccc45)cc3)cc2)NC(=O)[C@H](Cc2ccc(-c3ccccc3)cc2)NC(=O)[C@H](CN2CCOCC2)NC(=O)CSC[C@@H](C(=O)NCC(N)=O)NC1=O [Example 636] ({CH2CO}-[Ala(morpholin-4-yl)][Bip][Bip(4'-NH)](Indazole3carbonyl(1-CH2COOH))[Sar]PD[X69]VPVRLCG-NH2; thioether N-13) | – | < 50
CC(C)C[C@@H]1NC(=O)[C@H](Cc2cccc(C(N)=O)c2)NC(=O)[C@H](C(C)C)NC(=O)[C@@H]2CCCN2C(=O)[C@H](C(C)C)NC(=O)[C@@H](CCCNC(=N)NCc2ccccc2)NC(=O)[C@H](CC(=O)O)NC(=O)[C@H](Cc2ccc(O)cc2)NC(=O)CN(C)C(=O)[C@H](Cc2ccc(-c3ccc(NC(=O)c4nn(CC(=O)O)c5ccccc45)cc3)cc2)NC(=O)[C@H](Cc2ccc(-c3ccccc3)cc2)NC(=O)[C@H](CN2CCOCC2)NC(=O)CSC[C@@H](C(=O)NCC(N)=O)NC1=O [Example 600] ({CH2CO}-[Ala(morpholin-4-yl)][Bip][Bip(4'-NH)](Indazole3carbonyl(1-CH2COOH))[Sar]YD[dArg(ω-Bn)]VPV[Phe(3-CONH2)]LCG-NH2; thioether N-13) | – | < 50
CC(=O)Nc1ccc(-c2ccc(C[C@@H]3NC(=O)[C@H](Cc4ccc(-c5ccc(C(=O)O)cc5)cc4)NC(=O)[C@H](CC4CCCCC4)NC(=O)CSC[C@@H](C(=O)NCC(N)=O)NC(=O)[C@H](CC(C)C)NC(=O)[C@H](Cc4ccco4)NC(=O)[C@H](C(C)C)NC(=O)[C@@H]4CCCN4C(=O)[C@H](C(C)C)NC(=O)[C@@H](CCCNC(=N)N)NC(=O)[C@H](CC(=O)O)NC(=O)[C@@H]4CCCN4C(=O)CN(C)C3=O)cc2)cc1 [Example 246] ({CH2CO}-[Cha][Bip(4'-COOH)][Bip(4'-NHAc)][Sar]PD[dR]VPV[Ala(2-furyl)]LCG-NH2; thioether N-13) | 50 to 200 | –

Further lines, with some results ahead:

IC50 [1] [nM] | Structure (SMILES) | IC50 [nM]
< 50 | CC[C@H](C)[C@@H]1NC(=O)[C@@H](CCCNC(=N)N)NC(=O)[C@H](CC(=O)O)NC(=O)[C@H](Cc2cnc[nH]2)NC(=O)CN(C)C(=O)[C@H](Cc2ccc(-c3ccc(NC(=O)c4cccc(OCC(=O)O)c4)cc3)cc2)NC(=O)[C@H](Cc2ccc(-c3ccc(C(=O)Nc4cccc(OCC(=O)O)c4)cc3)cc2)NC(=O)[C@H](CC2CCCCC2)NC(=O)CSC[C@@H](C(=O)NCC(N)=O)NC(=O)[C@H](CC(C)C)NC(=O)[C@H](Cc2ncc[nH]2)NC(=O)[C@H](C(C)C)NC(=O)C2CCCN2C1=O (stereo partly shown) [Example 422] ({CH2CO}-[Cha][X56][Bip(4'-NH)](Benzoyl(3-OCH2COOH))[Sar]HD[dR]I[ξP]V[Ala(imidazol-2-yl)]LCG-NH2; thioether N-13) | –
< 50 | CC[C@H](C)[C@@H]1NC(=O)[C@@H](CCCNC(=N)NCc2ccc3occc3c2)NC(=O)[C@H](CC(=O)O)NC(=O)[C@H](Cc2cnc[nH]2)NC(=O)CN(C)C(=O)[C@H](Cc2ccc(-c3ccc(NC(=O)c4cccc(OCC(=O)O)c4)cc3)cc2)NC(=O)[C@H](Cc2ccc(-c3ccccc3)cc2)NC(=O)[C@H](CC2CCCCC2)NC(=O)CSC[C@@H](C(=O)NCC(N)=O)NC(=O)[C@H](CC(C)C)NC(=O)[C@H](Cc2cnc[nH]2)NC(=O)[C@H](C(C)C)NC(=O)[C@@H]2CCCN2C1=O [Example 499] ({CH2CO}-[Cha][Bip][Bip(4'-NH)](Benzoyl(3-OCH2COOH))[Sar]HD[X7]IPVHLCG-NH2; thioether N-13) | –
